Consider one compound from patent publication US6203822A, “Gallium-containing compounds for the treatment of infections caused by intracellular pathogens and pathogens causing chronic pulmonary infection” (priority 1996, dated 2001).

In this assay the test system is MDR-TB patient isolate (resistant to isoniazid and rifampin). The assay is classed as cell-based, M. tuberculosis. The note with it: gallium about 0 to about 500 μM.

Turning to `O=[N+]([O-])[O-].O=[N+]([O-])[O-].O=[N+]([O-])[O-].[Ga+3]` [gallium nitrate], the “activity against MDR M. tuberculosis strain” value is reported as “retained full activity”.
